Measurements taken from PubChem BioAssay AID463229 (Broad Institute, 2010).
Activity calls are given as the source filed them.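 How the source made its calls: active means compounds raising the signal whose fitted half-maximal concentration is at or below their top tested dose (cut at about 25 µM in these data); inconclusive means flat fit at 30 to 70% activity, or a poor fit; inactive means the rest.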

tested on: INS-1E rat beta cells, no cytokines, CellTiter-Glo ATP, 48 h; test: cytokine-free beta-cell viability effect – INS-1E rat cells, ATP luminescence, cherry pick, counter-screen for beta-cell apoptosis protection project, dose response (AID 463229)

| SMILES | AC50 |
| --- | --- |
| COc1ccccc1NC(=O)Cn1cc(C(=O)c2ccco2)c2ccccc21 | 8.7 µM |
| COc1ccc2nc3cc(Cl)ccc3c(Nc3cc(CN4CCCC4)c(O)c(CN4CCCC4)c3)c2n1 | 19.5 µM |
| Cc1cc(N/N=C/c2cccc(Cl)c2)nc(-n2nc(C)cc2C)n1 | 16.4 µM |
| Cc1cc(C(=O)CSc2nc3ccccc3c(=O)n2C)c(C)n1Cc1ccc2c(c1)OCO2 | 2.07 µM |
| CCN1CCN(Cc2ccc(NC(=O)c3ccc(C)c(NC(=O)c4c[nH]c5cc(C(F)(F)F)ccc5c4=O)c3)cc2C(F)(F)F)CC1 | 7.07 µM |
| O=c1cnnc(N/N=C/c2ccccn2)[nH]1 | 3.93 µM |
| COc1cnc(-c2ccccn2)nc1NC(C)C | 17.2 µM |
| Cc1nn(-c2nc3ccccc3[nH]2)c(=O)c2ccccc12 | 1.31 µM |
| COc1ccc(-n2c(-c3ccc(Br)cc3)c[n+]3c2CCCCC3)cc1 | 1.06 µM |
| O=S(=O)(NCc1ccncc1)c1ccc(Br)s1 | 4.25 µM |
| CCn1c(-c2ccccc2)c(C(=O)CCl)c2ccccc21 | 11.6 µM |
| Cc1[nH]c2ccccc2c1CN1CCC(Cc2ccccc2)CC1 | 3.99 µM |
| CC1CCN(Cc2c(C(=O)N/N=C/c3cc(Br)ccc3O)nnn2-c2nonc2N)CC1 | 2.52 µM |
| O=C(NN=C(c1ccccc1)c1ccccn1)c1ccccc1 | 2.55 µM |
| COC(/C(=N/O)c1ccc(Cl)cc1)c1ccccc1 (configuration not stated) | 2.66 µM |
| COc1ccc(O)c(/C=N/NC(=O)c2ccc(CSc3nc(C)cc(C)n3)cc2)c1 | 11.2 µM |
| Cc1ccc(C)c(S(=O)(=O)Nc2ccc(O)c3ccccc23)c1 | 14.1 µM |
| CCCOCc1ccc(O)c2ncccc12 | 7.79 µM |
| CCC1=NN(C(=O)c2cccc(Br)c2)C(O)(c2ccc(Br)cc2)C1 (configuration not stated) | 9.79 µM |
| FC(F)(F)c1ccc(CN2C[C@@H]3C(c4ccc(C(F)(F)F)cc4)C4(c5cccnc5)CC3(C4)[C@H]2c2ccccc2)cc1 (some centres not stated) | 5.15 µM |
| Cc1ccc(NC(=O)Cn2c(O)c(N=NC(=O)c3cc4ccccc4cc3O)c3ccccc32)cc1 | 8.15 µM |
| O=C(N/N=C(\c1ccccc1)c1ccccn1)c1ccccc1Cl | 6.14 µM |

| SMILES | AC50 |
| --- | --- |
| COc1ccc(-c2nn(-c3ccccc3)cc2/C=N/N2C(=O)CSC2=S)cc1 | 6.57 µM |
| CC(C)(C)OC(=O)NCCCCCc1cn([C@@H](CO)C(=O)NCCCCCCCCCCC(=O)N2CCN(C(=O)OC(C)(C)C)CC2)nn1 | 7.05 µM |
| NNc1nc(-c2ccccc2)cc(-c2ccccc2O)n1 | 17.7 µM |
| Cc1ccc(-c2c[n+]3c(n2-c2ccccc2)SCC3)cc1 | 2.63 µM |
| CCOC(=O)c1cccc(-[n+]2c(-c3ccccc3)cc(-c3ccccc3)cc2-c2ccccc2)c1 | 3.59 µM |
| CC(C)CC[n+]1ccn(C2=C([O-])c3ccccc3C(=O)/C2=N\S(=O)(=O)c2ccccc2)c1 | 22.9 µM |
| Cc1ccc2nc(/C(C#N)=C\c3ccc([N+](=O)[O-])o3)[nH]c2c1 | 2.96 µM |
| C/C(=N/NC(=O)CN(c1ccccc1)S(=O)(=O)c1ccccc1)c1ccccc1O | 10.2 µM |
| Cc1nnsc1-c1onc(C)c1C(=O)Nc1cc(Cl)cc(Cl)c1 | 16.5 µM |
| COc1ccc(C2CC(c3ccc4ccccc4c3OC(C)=O)=NN2C(C)=O)cc1 (configuration not stated) | 8.47 µM |
| COc1ccccc1N1CCN(Cc2cc(Br)c(O)c3ncccc23)CC1 | 5.72 µM |
| CCN1C/C(=C/c2cccc([N+](=O)[O-])c2)C(=O)/C(=C/c2cccc([N+](=O)[O-])c2)C1 | 2.39 µM |
| COc1cccc(/C=N/Nc2ncnc(Cl)c2N)c1O | 4.32 µM |
| COc1cc(/C=C2\CC(C(C)(C)C)C/C(=C\c3cc(OC)c(OC)c(OC)c3)C2=O)cc(OC)c1OC (configuration not stated) | 6.04 µM |
| Cc1ccc(Sc2cc(C)nc(-c3ccccn3)n2)cc1 | > 26 µM (inactive) |
| Cc1cccc(-n2c(C)cc(/C=N/n3cnnc3)c2C)c1 | 14.5 µM |
| O=C(N/N=C/c1sc(N2CCOCC2)nc1-c1ccccc1)c1cccc(S(=O)(=O)N2CCCC2)c1 | 2.25 µM |
| O=C(CCCCCCCCCCC(=O)NCc1cccnc1)NCc1cccnc1 | < 0.195 µM |
| CCS(=O)(=O)c1ncc(Cl)c(C(=O)Nc2ccc(S(=O)(=O)N3CCCC(C)C3)cc2)n1 (configuration not stated) | 6.96 µM |
| CCOc1cccc(/C=N/Nc2ccc(S(=O)(=O)N(CC)CC)cn2)c1O | 3.67 µM |
| COc1ccc(-n2c(-c3ccc(Br)cc3)c[n+]3c2CCc2ccccc2-3)cc1 | 1.86 µM |
| CCc1ccc(CN(C)C(=O)c2cc(COc3cccc4cnccc34)on2)cc1 | 7.91 µM |

| SMILES | AC50 |
| --- | --- |
| CCCC(=O)NC(NC(=S)Nc1ccc(N=Nc2ccccc2)cc1)C(Cl)(Cl)Cl (configuration not stated) | 7.51 µM |
| O=C(c1cc2sccc2n1Cc1ccc(F)cc1)N1CCN(c2nc3ccccc3s2)CC1 | 5.82 µM |
| CCC(C)Sc1ccc(-c2nc3ccc(C)cn3c2NCc2ccccc2)cc1OC (configuration not stated) | 6.46 µM |
| N#C/C(=N\Nc1ccc(Cl)cc1)C(=O)c1ccccc1 | 2.84 µM |
| CCC(=O)NC(c1ccccc1OC)c1ccc2cccnc2c1O (configuration not stated) | 4.29 µM |
| Cc1cc(C(C)(C)CC(C)(C)C)ccc1OCCOCC[N+](C)(C)Cc1ccccc1 | 4.07 µM |
| CCCCCCCCCCCCCCCC[N+](C)(C)CC | 6.57 µM |
| COc1ccc(-c2c[n+]3c(n2-c2ccc(C)cc2)CCCCC3)cc1 | 0.317 µM |
| O=C(Nc1nc(-c2ccccn2)cs1)Nc1ccc(F)cc1F | 10.2 µM |
| N=c1ccn(CC(=O)c2ccc(-c3ccccc3)cc2)cc1 | 1.94 µM |
| COc1cccc(/C=N/NC(=O)c2c(C)nc3ccc(Cl)cn23)c1O | 3.81 µM |
| N#CC(C#N)=C1C=CC=CN1/C(=C\c1ccco1)C(=O)c1ccc(Br)cc1 | 8.57 µM |
| O=S(=O)(c1ccc2c(c1)OCCO2)N1CCN(c2ncnc3sccc23)CC1 | 4.9 µM |
| Cc1cc(C)c2sc(NNC(=O)c3ccc(S(=O)(=O)N4CCc5ccccc5C4)cc3)nc2c1 | 3.38 µM |
| O=C(Nc1nc(-c2ccccn2)cs1)c1cccc(-n2cnnn2)c1 | 7.05 µM |
| FC(F)(F)c1ccccc1NC(=S)N1CCN(Cc2ccc3c(c2)OCO3)CC1 | 7.35 µM |
| CC(=O)Nc1ccc(Nc2c3ccccc3nc3ccccc23)cc1 | 7.08 µM |
| COC(=O)c1ccccc1NC1=C/C(=N\S(=O)(=O)c2ccc(C(=O)O)cc2)c2ccccc2C1=O | 9.17 µM |
| Cc1ccc(NC(=O)c2ccccc2NS(=O)(=O)c2ccc(Cl)s2)cc1 | 5.78 µM |
| Cc1[nH]n(C2=NCCS2)c(=O)c1N=Nc1cccc(C(F)(F)F)c1 | 7.05 µM |
| Cc1cc(C(=O)N/N=C/c2cc(Br)ccc2OC(=O)c2ccccc2)n[nH]1 | 7.44 µM |
| O=C(Nc1nc2ccc(F)cc2s1)c1ccccn1 | 4.43 µM |

| SMILES | AC50 |
| --- | --- |
| Oc1[nH]c2ccccc2c1N=NC(=S)N1CCOCC1 | 3.98 µM |
| COc1ccc(CNCCC(c2ccc(OC(C)C)cc2)C(C)C)cc1OC (configuration not stated) | 15 µM |
| O=C(Nc1ccc(-c2noc(-c3cccs3)n2)cc1)c1cccnc1 | 13 µM |
| CC(C)c1ccc2c(c1)C(N1CCNCC1)Cc1ccc(F)cc1S2 (configuration not stated) | 14.6 µM |
| Nc1c(C(=O)Nc2ccc3c(c2)OCCO3)nnn1Cc1ccccc1Cl | 5.53 µM |
| Cc1ccc(S(=O)(=O)Nc2ccccc2N(C)S(=O)(=O)c2ccc(C)cc2)cc1 | 15.6 µM |
| CCOC(=O)c1c(NC(=O)/C=C/C(=O)O)sc(C)c1-c1ccc(C(C)(C)C)cc1 | 7.17 µM |
| COCCn1c(SCC(=O)/C=C2\N(C)c3ccccc3C2(C)C)nnc1-c1ccncc1 | 13.1 µM |
| Cc1ccc(Cl)cc1N1CCN(C(=O)CSc2nnc3n2C(C)(C)Cc2ccccc2-3)CC1 | 7.07 µM |
| COc1cc(C(=O)NC(=S)NNC(=O)c2cnccn2)cc(OC)c1OC | 7.66 µM |
| C/C(=N\NC(=O)c1ccccc1Cl)c1ccccn1 | 5.98 µM |
| COc1ccc2nc(C)cc(N/N=C/c3ccccc3)c2c1 | 13.8 µM |
| Cc1cccc(CSC(Nc2ccc(F)cc2)=C(C#N)C#N)c1 | 5.85 µM |
| Cc1cc(/C=N/n2cnnc2)c(C)n1-c1ccc(OCc2ccccc2F)cc1 | 4.05 µM |
| COCCCNC(=O)Cn1nnc(-c2ccc(NC(=O)c3cccnc3)cc2)n1 | 5.3 µM |
| CCCCC(=O)N1C/C=C\C(c2ccc(OC)cc2)N(Cc2ccc(F)cc2)C(=O)[C@H]1Cc1ccccc1 (some centres not stated) | 7.74 µM |
| Cc1csc2c(N3CCN(C(=O)c4ccc(C(C)(C)C)cc4)CC3)ncnc12 | 14.9 µM |
| COc1cccc(CNCCc2c[nH]c3ccccc23)c1OCc1ccccc1F | 7 µM |
| O=[N+]([O-])c1ccc(/C=N/n2cnc3ccccc32)s1 | 4.04 µM |
| CCOc1ccc2nc(NC(=O)c3cccc(-c4cc5ccccc5oc4=O)c3)sc2c1 | 3.31 µM |
| Cc1ccc(NC(=O)C2CCN(S(=O)(=O)c3ccc4c(c3)NC(=O)C(C)S4)CC2)cc1Cl (configuration not stated) | 4.64 µM |
| Nc1nc(-c2ccccn2)nc(N)c1Cc1c(F)cccc1Cl | 8.86 µM |

| SMILES | AC50 |
| --- | --- |
| COc1cc(NC(=O)c2ccc([N+](=O)[O-])o2)ccc1NC(=O)c1cccs1 | 15.2 µM |
| CCN(CC)S(=O)(=O)c1cccc(NC(=O)Nc2cccc(C(F)(F)F)c2)c1 | 7.13 µM |
| CCOC(=O)C1CCN(Cc2ccc(O)c3ncccc23)CC1 | 12.5 µM |
| CC(C)Nc1ccc(Nc2ccnc3cc4ccccc4cc23)cc1 | 7.2 µM |
| O=[N+]([O-])c1cc(/C=N/Nc2nc3ccccc3[nH]2)c(O)cc1O | 2.01 µM |
| C#CCOCCOCCOCCNc1nc(N2CCN(C(=O)CCCCCCCCCCNC(=O)[C@H]([C@@H](C)CC)n3cc(CCCCN=C(N)N)nn3)CC2)nc(N2CCN(C(=O)CCCCCCCCCCNC(=O)[C@H](CO)n3cc(CCCCCN)nn3)CC2)n1 | 7.67 µM |
| O=C(Cn1c(-c2ccccc2)c[n+]2ccsc12)c1ccc([N+](=O)[O-])cc1 | 6.04 µM |
| COc1ccc(Cn2c(SCc3cc(C)ccc3C)nc3cc(OC)c(OC)cc3c2=N)cc1 | 7.22 µM |
| CN(C1=C(NC(=O)c2ccc(Cl)cc2)C(=O)c2ccccc2C1=O)c1ccccc1 | 13 µM |
| c1ccc(C2(Cn3ccc4ccccc43)OCCO2)cc1 | > 26 µM (inactive) |
| O=C(NCc1cccnc1)/C(=C\c1ccc(-c2ccc(Br)cc2)o1)S(=O)(=O)c1ccccc1 | 4.27 µM |
| Cc1ccc(Nc2c(-c3ccccn3)nc3cccc(C)n23)cc1 | 6.47 µM |
| CCc1ccc2[nH]c(=O)c(C3C(C#N)=C(N)Oc4c3ccc3cccnc43)cc2c1 (configuration not stated) | 5.4 µM |
| Cc1cccnc1Nc1nc(-c2ccccn2)cs1 | 2.58 µM |
| COc1ccc2c(c1)N(C)/C(=C/c1cccc[n+]1C)S2 | 1.49 µM |
| COc1ccc2c(c1)[nH]c1c(N3CCN(Cc4ccc5c(c4)OCO5)CC3)ncnc12 | 3.45 µM |
| O=C(NCCOCCOCCNC(=O)c1cccnc1)c1cccnc1 | 3.83 µM |
| N#CC(C#N)=C1C=CC=CN1/C(=C\c1ccco1)C(=O)c1ccccc1 | 13 µM |
| COc1cnc(-c2ccccn2)nc1Oc1ccc(Cl)c2ccccc12 | 15.3 µM |
